Measurements as given in patent US20070149508A1, “Six membered heteroaromatic inhibitors targeting resistant kinase mutations” (TargeGen, Inc., priority 2005, published 2007).
Where a name gives a salt, the structure may show the parent alone.

Columns and labels:
Abl (T315I) = target: T1, Abl (T315I) (Homo sapiens, UniProt P00519, T315I); test: Abl (T315I) Kinase Assay (KinaseGlo luminescent detection of residual ATP); format: biochemical; settings: Abl (T315I) IC50 (nM), Abl (T315I) (Upstate, 17 ng/well), Abltide 100 uM, ATP 500 nM, 60 minutes at 37° C.
T1 construct: purchased Upstate
Protocol: The assay was performed similarly to the Abl kinase assay. Abl (T315I) (Upstate, 17 ng/well); Abltide substrate (100 uM) and ATP (500 nM) comprised the reaction mixture. Compound was similarly diluted, and the reaction plate was incubated for 60 minutes at 37° C.

Abl kinase = Abl kinase (Homo sapiens, UniProt P00519); test: biochemical; settings: Abl IC50 (nM), Abl kinase (Invitrogen, 20 ng/well), Abltide 100 μM, ATP 500 nM, 37° C. for 60 minutes, top concentration 10 uM

Q: Which results are given for `O=S(=O)(c1ccc(Nc2ncc(/C=C/c3ccc(Cl)c4[nH]ccc34)cn2)cc1)C1CCNCC1` [5-((E)-2-(7-chloro-1H-indol-4-yl)vinyl)-N-(4-(piperidin-ylsulfonyl)phenyl)pyrimidin-2-amine Hydrochloride]?
A: IC50 (Abl (T315I)): 156 nM; IC50 (Abl kinase): 15 nM

Q: How did the IC50 (Abl (T315I)) turn out when `Nc1nc2ccc(/C=C/c3cnc(Nc4ccc(S(=O)(=O)N5CCNCC5CO)cc4)nc3)cc2s1` (stereo not drawn) [(1-{[4-({5-[(E)-2-(2-amino-1,3-benzothiazol-6-yl)vinyl]pyrimidin-2-yl}amino)phenyl]sulfonyl}piperazin-2-yl)methanol] was run?
A: Its IC50 is 115 nM.

Q: And the IC50 (Abl kinase)?
A: The IC50 was 119 nM.

Q: Which IC50 (Abl (T315I)) does the source give for `Nc1nc2ccc(/C=C/c3cnc(Nc4ccc(SCCN5CCOCC5)cc4)nc3)cc2s1` [6-(2-{2-[4-(2-Morpholin-4-yl-ethylsulfanyl)-phenylamino]-pyrimidin-5-yl}-vinyl)-benzothiazol-2-ylamine] here?
A: Its IC50 is 1200 nM.

Q: And the IC50 (Abl kinase)?
A: Its IC50 is 630 nM.

Q: With `Nc1nc2ccc(/C=C/c3cnc(Nc4ccc(S(=O)(=O)N5CCC(CO)CC5)cc4)nc3)cc2s1` [(1-{[4-({5-[(E)-2-(2-amino-yl)vinyl]pyrimidin-2-amino)phenyl]sulfonyl}piperidin-4-yl)methanol] as the molecule, how does the IC50 (Abl (T315I)) read?
A: The IC50 was 194 nM.

Q: And the IC50 (Abl kinase)?
A: Its IC50 is 437 nM.

Q: Which results are given for `O=C(Nc1nc2ccc(/C=C/c3cnc(Nc4ccc(S(=O)(=O)N5CCNCC5)cc4)nc3)cc2s1)c1cccc(C(F)(F)F)c1` [N-[6-(2-{2-[4-(Piperazine-1-sulfonyl)-phenylamino]-pyrimidin-5-yl]-vinyl)-benzothiazol-2-yI]-3-trifluoromethyl-benzamide]?
A: IC50 (Abl (T315I)): 5600 nM; IC50 (Abl kinase): 5110 nM

Q: For `NS(=O)(=O)c1cccc(/C=C/c2cnc(Nc3ccc(S(=O)(=O)C4CCNCC4)cc3)nc2)c1` [3-(2-{2-[4-(Piperidine-4-sulfonyl)-phenylamino]-pyrimidin-5-yl}-vinyl)-benzenesulfonamide Hydrochloride], which IC50 (Abl (T315I)) is on record?
A: Its IC50 is 2070 nM.

Q: What about the IC50 (Abl kinase) of the same molecule?
A: The IC50 was 198 nM.

Q: How did the IC50 (Abl (T315I)) turn out when `Cc1nc(Nc2ccc(S(=O)(=O)C3CCNCC3)cc2)ncc1/C=C/c1cccc(O)c1` [3-((E)-2-(2-(4-(piperidin-4-ylsulfonyl)phenylamino)-4-methylpyrimidin-5-yl)vinyl)phenol hydrochloride] was run?
A: Its IC50 is 65 nM.

Q: What about the IC50 (Abl kinase) of the same molecule?
A: The IC50 was 10 nM.

Q: What does the source list for `Nc1noc2c(/C=C/c3cnc(Nc4ccc(S(=O)(=O)N5CCNCC5)c(NCCO)c4)nc3)cccc12` [2-{[5-({5-{(E)-2-(3-amino-1,2-benzisoxazol-7-yl)vinyl]pyrimidin-2-yl}amino)-2-(piperazin-1-ylsulfonyl)phenyl]amino}ethanol]?
A: IC50 (Abl (T315I)): 1860 nM; IC50 (Abl kinase): 34 nM

Q: Which results are given for `Nc1cccc(/C=C/c2cnc(Nc3ccc(S(=O)(=O)C4CCNCC4)cc3)nc2)n1` [5-((E)-2-(6-aminopyridin-2-yl)vinyl)-N-(4-(piperidin-4-ylsulfonyl)phenyl)pyrimidin-2-amine Hydrochloride]?
A: IC50 (Abl (T315I)): 1210 nM; IC50 (Abl kinase): 56 nM

Q: For `Nc1nc2ccc(/C=C/c3cnc(Nc4ccc(S(=O)(=O)N5CCNCC5)c(C(F)(F)F)c4)nc3)cc2s1` [6-[(E)-2-(2-{[4-(piperazin-1-ylsulfonyl)-3-(trifluoromethyl)phenyl]amino)pyrimidin-5-yl)vinyl]-1,3-benzothiazol-2-amine], which IC50 (Abl (T315I)) is on record?
A: Its IC50 is 2100 nM.

Q: What about the IC50 (Abl kinase) of the same molecule?
A: The IC50 was 1020 nM.

Q: For `O=S(=O)(c1ccc(Nc2ncc(/C=C/c3cccc(O)c3)cn2)cc1)C1CCNCC1` [3-(2-{2-[4-(Piperidine-4-sulfonyl)-phenylamino]-pyrimidin-5-yl}-vinyl)-phenol], which IC50 (Abl (T315I)) is on record?
A: The IC50 was 22 nM.

Q: What about the IC50 (Abl kinase) of the same molecule?
A: Its IC50 is 1.7 nM.

Q: What does the source list for `O=S(=O)(c1ccc(Nc2ncc(/C=C/c3cccc(C(F)F)c3)cn2)cc1)C1CCNCC1` [5-(3-(difluoromethyl)styryl)-N-(4-piperidin-4-ylsulfonyl)phenyl)pyrimidin 2-amine. Triflate]?
A: IC50 (Abl (T315I)): 486 nM; IC50 (Abl kinase): 162 nM

Q: Which results are given for `O=S(=O)(c1ccc(Nc2ncc(/C=C/c3ccc(F)c(O)c3)cn2)cc1)C1CCNCC1` [2-Fluoro-5-(2-{2-[4-(piperidine-4-sulfonyl)-phenylamino]-pyrimidin-5-yl}-vinyl)-phenol]?
A: IC50 (Abl (T315I)): 213 nM; IC50 (Abl kinase): 12 nM

Q: Which results are given for `O=S(=O)(c1ccc(Nc2ncc(/C=C/c3ccc(-c4nnn[nH]4)cc3)cn2)cc1)C1CCNCC1` [5-((E)-4-(1H-tetrazol-5-ylsulfonyl)phenyl)pyrimidin-yl)styryl)-N-(4-(piperidin-4-2-amine hydrochloride]?
A: IC50 (Abl (T315I)): 4180 nM; IC50 (Abl kinase): 3260 nM

Q: Which IC50 (Abl (T315I)) does the source give for `O=S(=O)(c1ccc(Nc2ncc(/C=C/c3cccc4[nH]ncc34)cn2)cc1)N1CCCNCC1` [[4-([1,4]Diazepane-1-sulfonyl)-phenyl]-{5-[2-(1H-indazol-4-yl)-vinyl]-pyrimidin-2-yl}-amine] here?
A: The IC50 was 184 nM.

Q: What about the IC50 (Abl kinase) of the same molecule?
A: The IC50 was 12 nM.

Q: With `CCNC(=O)N1CCC(S(=O)(=O)c2ccc(Nc3ncc(/C=C/c4ccc5nc(N)sc5c4)cn3)cc2)CC1` [4-(4-{5-[2-(2-Amino-benzothiazol-6-yl)-vinyl]-benzenesulfonyl)-piperidine-pyrimidin-2-ylamino)-1-carboxylic acid ethylamide] as the molecule, how does the IC50 (Abl (T315I)) read?
A: Its IC50 is 237 nM.

Q: And the IC50 (Abl kinase)?
A: The IC50 was 233 nM.

Q: Which results are given for `Oc1cccc(/C=C/c2cnc(Nc3ccc(OCCN4CCCC4)cc3)nc2)c1` [3-((E)-2-(2-(4-(2-(pyrrolidin-1-yl)ethoxy)phenylamino)pyrimidin-5-yl)vinyl)phenol trifluoroacetate]?
A: IC50 (Abl (T315I)): 297 nM; IC50 (Abl kinase): 30 nM

Q: How did the IC50 (Abl (T315I)) turn out when `C(=C\c1cccc2[nH]ccc12)/c1cnc(Nc2ccc(OC3CCNCC3)cc2)nc1` [5-[(E)-2-(1H-indol-4-yl)vinyl]-N-[4-(piperidin-4-yloxy)phenyl]pyrimidin-2-amine trifluoroacetic acid salt] was run?
A: Its IC50 is 820 nM.

Q: What about the IC50 (Abl kinase) of the same molecule?
A: The IC50 was 21 nM.

Q: Which results are given for `Nc1nc2ccc(/C=C/c3cnc(Nc4ccc(S(=O)(=O)N5CCNCC5)c(F)c4)nc3)cc2s1` [6-[(E)-2-(2-{[3-fluoro-4-ylsulfonyl)phenyl]amino}pyrimidin-5-yl)vinyl]-1,3-benzothiazol-2-amine]?
A: IC50 (Abl (T315I)): 94 nM; IC50 (Abl kinase): 100 nM

Q: Which results are given for `O=S(=O)(c1ccc(Nc2ncc(/C=C/c3cc(C(F)(F)F)cc4[nH]nnc34)cn2)cc1)N1CCNCC1` [[4-(Piperazine-1-sulfonyl)-phenyl]-{5-[2-(6-trifluoromethyl-1H-benzotriazol-4-yl)-vinyl]-pyrimidin-2-yl}-amine]?
A: IC50 (Abl (T315I)): 89 nM; IC50 (Abl kinase): 269 nM

Q: What does the source list for `CN(C)CCN(C1CCNCC1)S(=O)(=O)c1ccc(Nc2ncc(/C=C/c3ccc4nc(N)sc4c3)cn2)cc1` [4-({5-[(E)-2-(2-amino-1,3-benzothiazol-6-yl)vinyl}pyrimidin-2-yl}amino)-N-[2-(dimethylamino)ethyl]-N-piperidin-4-ylbenzenesulfonamide]?
A: IC50 (Abl (T315I)): 38 nM; IC50 (Abl kinase): 109 nM

Q: What does the source list for `O=S(=O)(c1ccc(Nc2ncc(/C=C/c3cccc(O)c3)cn2)c(C(F)(F)F)c1)N1CCNCC1` [3-(2-{2-[4-(Piperazine-1-sulfonyl)-2-trifluoromethyl-phenylamino]-pyrimidin-5-yl}-vinyl)-phenol]?
A: IC50 (Abl (T315I)): 1.53e+06 nM; IC50 (Abl kinase): 44700 nM

Q: With `C(=C\c1cccc2[nH]ccc12)/c1cnc(Nc2cccc(N3CCNCC3)c2)nc1` [{5-[2-(1H-Indol-4-yl)-vinyl]-pyrimidin-2-yl}-(3-piperazin-1-yl-phenyl)-amine] as the molecule, how does the IC50 (Abl (T315I)) read?
A: The IC50 was 2600 nM.

Q: What about the IC50 (Abl kinase) of the same molecule?
A: The IC50 was 86 nM.

Q: Which results are given for `O=S(=O)(c1ccc(Nc2ncc(/C=C/c3ccc4[nH]nnc4c3)cn2)cc1)C1CCNCC1` [5-((E)-2-(1H-benzo[d][1,2,3]triazol-5-yl)vinyl)-N-(4-(piperidin-4-ylsulfonyl)phenyl)pyrimidin-2-amine]?
A: IC50 (Abl (T315I)): 467 nM; IC50 (Abl kinase): 75 nM
